Measured values from PubChem BioAssay AID320 (DTP/NCI, 2004).
Several values for one entry are separate records, joined by “and”; a condition that tells them apart may be missing. Equal values may be shown once. Inconclusive results and toxic doses are left out. *1 amine or outer side, *2 acyl side, *3 side chain or, on linkers, in order; H or OH if unused. Where a SMILES comes first, the peptide text is derived from it. Bridges are numbered along the chain shown (N, C = ends). Roman numbers before positions name the chains, in order. [ ]: non-standard residue; d: D form. Actinocin(9to1) = Cc1c2oc3c(C)ccc(C(=O)[*:1])c3nc-2c(C(=O)[*:2])c(N)c1=O; aThr = C[C@H](O)[C@H](N)C(=O)O; NMeV = CN[C@H](C(=O)O)C(C)C; Sar = CNCC(=O)O

System: BDF1 mice, P329 reticulum cell sarcoma ip, survival T/C
Assay: NCI In Vivo Anticancer Drug Screen. Data for tumor model P329 Reticulum Cell Sarcoma (intraperitoneal) in B6D2F1 (BDF1) mice
Details: endpoint: median survival time, higher = longer survival
Protocol: The antitumor activity of compounds was measured in mice bearing transplantable tumors. Survival or tumor size were measured and the results are expressed as the measurement made in the treated group (T) divided by the measurement made in the vehicle treated control group (C). The tumor model used in this assay is P329 Reticulum Cell Sarcoma (intraperitoneal) in B6D2F1 (BDF1) mice

[1] = dose: 2.5 mg/kg/injection, schedule: Q01DX010 (ip), vehicle: saline
[2] = dose: 5.0 mg/kg/injection, schedule: Q01DX010 (ip), vehicle: saline
[3] = dose: 10.0 mg/kg/injection, schedule: Q01DX010 (ip), vehicle: saline
[4] = dose: 20.0 mg/kg/injection, schedule: Q01DX010 (ip), vehicle: saline
[5] = dose: 3.13 mg/kg/injection, schedule: Q01DX010 (ip), vehicle: saline
[6] = dose: 6.25 mg/kg/injection, schedule: Q01DX010 (ip), vehicle: saline
[7] = dose: 12.5 mg/kg/injection, schedule: Q01DX010 (ip), vehicle: saline
[8] = dose: 8.0 mg/kg/injection, schedule: Q01DX010 (ip), vehicle: saline
[9] = dose: 16.0 mg/kg/injection, schedule: Q01DX010 (ip), vehicle: saline
[10] = dose: 32.0 mg/kg/injection, schedule: Q01DX010 (ip), vehicle: saline
[11] = dose: 64.0 mg/kg/injection, schedule: Q01DX010 (ip), vehicle: saline
[12] = dose: 4.0 mg/kg/injection, schedule: Q01DX010 (ip), vehicle: saline
[13] = dose: 40.0 mg/kg/injection, schedule: Q01DX010 (ip), vehicle: saline
[14] = dose: 25.0 mg/kg/injection, schedule: Q01DX010 (ip), vehicle: saline
[15] = dose: 1.5 mg/kg/injection, schedule: Q01DX010 (ip), vehicle: saline
[16] = dose: 6.0 mg/kg/injection, schedule: Q01DX010 (ip), vehicle: saline
[17] = dose: 3.0 mg/kg/injection, schedule: Q01DX010 (ip), vehicle: saline
[18] = dose: 12.0 mg/kg/injection, schedule: Q01DX010 (ip), vehicle: saline
[19] = dose: 31.3 mg/kg/injection, schedule: Q01DX010 (ip), vehicle: saline
[20] = dose: 0.5 mg/kg/injection, schedule: Q01DX010 (ip), vehicle: saline
[21] = dose: 1.0 mg/kg/injection, schedule: Q01DX010 (ip), vehicle: saline
[22] = dose: 80.0 mg/kg/injection, schedule: Q01DX010 (ip), vehicle: saline

Clc1ccc(C(c2ccccc2Cl)C(Cl)Cl)cc1 (stereo not given)
T/C (dose: 62.5 mg/kg/injection, schedule: Q01DX010 (sc), vehicle: steriod suspending solution): 100 % of control
T/C (dose: 125.0 mg/kg/injection, schedule: Q01DX010 (sc), vehicle: steriod suspending solution): 100 % of control
T/C (dose: 250.0 mg/kg/injection, schedule: Q01DX010 (sc), vehicle: steriod suspending solution): 107 % of control
T/C (dose: 500.0 mg/kg/injection, schedule: Q01DX010 (sc), vehicle: steriod suspending solution): 103 % of control

N=C(N)SCc1c2ccccc2c(CSC(=N)N)c2ccccc12
T/C [1]: 112 % of control
T/C [2]: 118 % of control
T/C [3]: 106 % of control
T/C [4]: 118 % of control

O=C(O)CCCc1ccc(N(CCCl)CCCl)cc1
T/C [5]: 96 % of control and 108 % of control
T/C [6]: 103 % of control and 108 % of control
T/C [7]: 116 % of control and 119 % of control

Nc1nc(SCc2ccccc2)c2[nH]cnc2n1
T/C [8]: 100 % of control and 121 % of control
T/C [9]: 114 % of control and 121 % of control
T/C [10]: 117 % of control
T/C [11]: 89 % of control

O=C(Nc1ccc(NC2=NCCN2)cc1)c1ccc(C(=O)Nc2ccc(NC3=NCCN3)cc2)cc1
T/C (dose: 2.0 mg/kg/injection, schedule: Q01DX010 (ip), vehicle: saline): 153 % of control and 157 % of control
T/C [12]: 173 % of control and 176 % of control
T/C [8]: 184 % of control and 203 % of control
T/C [9]: 88 % of control and 92 % of control

CN(C)c1ccc(/C=C/c2ccnc3ccccc23)cc1
T/C [2]: 100 % of control and 103 % of control
T/C [3]: 92 % of control and 107 % of control
T/C [4]: 96 % of control and 103 % of control
T/C [13]: 92 % of control and 100 % of control

CN(C)/N=N/c1nc[nH]c1C(N)=O
T/C [14]: 121 % of control
T/C (dose: 100.0 mg/kg/injection, schedule: Q01DX010 (ip), vehicle: saline): 169 % of control
T/C (dose: 200.0 mg/kg/injection, schedule: Q01DX010 (ip), vehicle: saline): 100 % of control and 110 % of control

S=P(N1CC1)(N1CC1)N1CC1
T/C (dose: 0.75 mg/kg/injection, schedule: Q01DX010 (ip), vehicle: saline): 103 % of control and 107 % of control
T/C [15]: 111 % of control
T/C [16]: 115 % of control and 123 % of control

Cc1c2oc3c(C)ccc(C(=O)N[C@@H]4C(=O)N[C@H](C(C)C)C(=O)N5CCC[C@H]5C(=O)N(C)CC(=O)N(C)[C@@H](C(C)C)C(=O)O[C@H]4C)c3nc-2c(C(=O)N[C@@H]2C(=O)N[C@H](C(C)C)C(=O)N3CCC[C@H]3C(=O)N(C)CC(=O)N(C)[C@@H](C(C)C)C(=O)O[C@H]2C)c(N)c1=O (I: [aThr][dV]P[Sar][NMeV] / II: [aThr][dV]P[Sar][NMeV]; ester I:1-I:C, II:1-II:C; linker I:N-II:N via Actinocin(9to1))
T/C (dose: 12.5 micrograms/kg/injection, schedule: Q01DX010 (ip), vehicle: other): 115 % of control and 120 % of control
T/C (dose: 50.0 micrograms/kg/injection, schedule: Q01DX010 (ip), vehicle: other): 166 % of control

N=C(N)c1ccc(Nc2ccc(C(=N)N)cc2)cc1
T/C [15]: 93 % of control
T/C [17]: 87 % of control
T/C [16]: 96 % of control
T/C [18]: 90 % of control

N=[N+]=CC(=O)OCC(N)C(=O)O (stereo not given)
T/C [6]: 153 % of control and 162 % of control
T/C [7]: 175 % of control and 176 % of control
T/C [14]: 87 % of control and 92 % of control

CCCSc1ncnc2nc[nH]c12
T/C [19]: 115 % of control and 123 % of control
T/C (dose: 62.5 mg/kg/injection, schedule: Q01DX010 (ip), vehicle: saline): 107 % of control
T/C (dose: 125.0 mg/kg/injection, schedule: Q01DX010 (ip), vehicle: saline): 107 % of control

CO[C@H](C(=O)[C@@H](O)[C@@H](C)O)[C@@H]1Cc2cc3cc(OC4CC(OC5CC(O)C(O)C(C)O5)C(O)C(C)O4)c(C)c(O)c3c(O)c2C(=O)[C@H]1OC1CC(OC2CC(OC3CC(C)(O)C(O)C(C)O3)C(O)C(C)O2)C(O)C(C)O1 (stereo not given in full)
T/C [20]: 103 % of control
T/C [21]: 90 % of control

CS(=O)(=O)OCCN(CCOS(C)(=O)=O)c1ccc(N=O)cc1
T/C [21]: 107 % of control

Nc1nc(=S)c2ncn(C3OC(CO)C(O)C3O)c2[nH]1 (stereo not given)
T/C [12]: 110 % of control
T/C [9]: 90 % of control

CO[C@@H]1[C@@H](OC2OC(C)C(OC3CC(C)(O)C(OC(=O)CC(C)C)C(C)O3)C(N(C)C)C2O)[C@@H](CC=O)C[C@@H](C)C(=O)/C=C/C2O[C@H]2C[C@@H](C)OC(=O)C[C@H]1OC(C)=O (stereo not given in full)
T/C (dose: 37.5 mg/kg/injection, schedule: Q01DX010 (ip), vehicle: saline): 100 % of control
T/C (dose: 75.0 mg/kg/injection, schedule: Q01DX010 (ip), vehicle: saline): 100 % of control and 107 % of control
T/C (dose: 150.0 mg/kg/injection, schedule: Q01DX010 (ip), vehicle: saline): 103 % of control and 107 % of control
T/C (dose: 300.0 mg/kg/injection, schedule: Q01DX010 (ip), vehicle: saline): 107 % of control and 114 % of control

NC(Cc1ccc(N(CCCl)CCCl)cc1)C(=O)O (stereo not given)
T/C [2]: 153 % of control
T/C [3]: 175 % of control

Nc1nc(N)c2nc(CNc3ccc(C(=O)NC(CCC(=O)O)C(=O)O)cc3)cnc2n1 (stereo not given)
T/C (dose: 0.05 mg/kg/injection, schedule: Q01DX010 (ip), vehicle: other): 111 % of control
T/C (dose: 0.1 mg/kg/injection, schedule: Q01DX010 (ip), vehicle: other): 107 % of control
T/C (dose: 0.2 mg/kg/injection, schedule: Q01DX010 (ip), vehicle: other): 123 % of control

CC[C@]1(O)C[C@H]2CN(CCc3c([nH]c4ccccc34)[C@@](C(=O)OC)(c3cc4c(cc3OC)N(C=O)[C@H]3[C@@](O)(C(=O)OC)[C@H](OC(C)=O)[C@]5(CC)C=CCN6CC[C@]43[C@@H]65)C2)C1
T/C (dose: 0.03 mg/kg/injection, schedule: Q01DX010 (ip), vehicle: saline): 100 % of control and 105 % of control
T/C (dose: 0.06 mg/kg/injection, schedule: Q01DX010 (ip), vehicle: saline): 104 % of control and 113 % of control
T/C (dose: 0.12 mg/kg/injection, schedule: Q01DX010 (ip), vehicle: saline): 114 % of control

O=C(Nc1ccc(C2=NCCN2)cc1)c1cccc(C(=O)Nc2ccc(C3=NCCN3)cc2)c1
T/C [9]: 150 % of control and 176 % of control
T/C [10]: 169 % of control and 180 % of control
T/C [11]: 184 % of control and 196 % of control

CCN(CCNc1ccc(C)c2sc3cc(Cl)ccc3c(=O)c12)CC(C)O (stereo not given)
T/C [19]: 100 % of control
T/C (dose: 250.0 mg/kg/injection, schedule: Q01DX010 (ip), vehicle: saline): 92 % of control

CN(C)c1ccc(Nc2c3ccccc3nc3ccccc23)cc1
T/C (dose: 36.0 mg/kg/injection, schedule: Q01DX010 (ip), vehicle: saline): 121 % of control
T/C [22]: 157 % of control
T/C (dose: 120.0 mg/kg/injection, schedule: Q01DX010 (ip), vehicle: saline): 153 % of control

C1CN1c1nc(N2CC2)nc(N2CC2)n1
T/C (dose: 0.13 mg/kg/injection, schedule: Q01DX010 (ip), vehicle: saline): 96 % of control and 108 % of control
T/C (dose: 0.25 mg/kg/injection, schedule: Q01DX010 (ip), vehicle: saline): 115 % of control
T/C [20]: 170 % of control
T/C [21]: 150 % of control

O=P1(N(CCCl)CCCl)NCCCO1 (stereo not given)
T/C (dose: 11.3 mg/kg/injection, schedule: Q01DX010 (ip), vehicle: saline): 106 % of control and 121 % of control
T/C (dose: 22.5 mg/kg/injection, schedule: Q01DX010 (ip), vehicle: saline): 86 % of control

Cn1cnc([N+](=O)[O-])c1Sc1nc(N)nc2nc[nH]c12
T/C [1]: 150 % of control
T/C [3]: 100 % of control

Nc1ncnc2[nH]ncc12
T/C [15]: 107 % of control
T/C [17]: 111 % of control
T/C [16]: 123 % of control
T/C [18]: 88 % of control and 103 % of control

C[C@]12C=CC(=O)C=C1CC[C@@H]1[C@@H]2C(=O)C[C@@]2(C)[C@H]1CC[C@]2(O)C(=O)CO
T/C (dose: 12.5 mg/kg/injection, schedule: Q01DX010 (sc), vehicle: steriod suspending solution): 95 % of control and 104 % of control

CSc1ncnc2nc[nH]c12
T/C [14]: 115 % of control and 123 % of control

O=c1[nH]c(=O)n(C2CC(O)C(CO)O2)cc1F (stereo not given)
T/C [2]: 103 % of control
T/C [3]: 110 % of control and 111 % of control
T/C [4]: 123 % of control
T/C [13]: 150 % of control
T/C [22]: 161 % of control

S=c1nc[nH]c2nc[nH]c12
T/C (dose: 20.0 mg/kg/injection, schedule: Q01DX010 (ip), vehicle: alkali diluted with saline): 150 % of control
T/C (dose: 80.0 mg/kg/injection, schedule: Q01DX010 (ip), vehicle: alkali diluted with saline): 158 % of control

O=NN(CCCl)C(=O)NCCCl
T/C [5]: 158 % of control
T/C [6]: 157 % of control and 158 % of control
T/C [7]: 103 % of control
